Experimental data from US8207137B2, “Method of inhibiting angiogenesis or invasion or formation of metastases” (INSERM, priority 2001, dated 2012).

System: CPAE cells (calf pulmonary artery endothelial cells)
Assay: Adhesion of CPAE endothelial cells to fibrinogen, vitronectin and fibronectin
Format: cell-based, bovine
Experimental: First technique: punctual incubation of the endothelial cells with AMEP during the test.
The CPAE were detached from the culture plates by incubation with 1.5 mM EDTA and resuspended at the rate of 5×10^5 cells/ml in the adhesion buffer (140 mM NaCl, 10 mM Hepes, 5 mM glucose, 5.4 mM KCl, 2 mM CaCl2, 1 mM MgCl2, 1 mM MnCl2, pH 7.4). […] Dutcher) that had been incubated in advance for one night at 4° C. with 50 μl of purified fibrinogen (40 μg/ml in PBS; Kabi), 10 μg/ml of vitronectin (Sigma); 30 μg/ml of fibronectin (Sigma) and 1% of BSA (bovine serum albumin) as negative control. After 20 minutes of incubation of the CPAE cells at 37° C., the plate was washed twice with 200 μl of adhesion buffer and the nonspecific sites were saturated with PBS supplemented with 1% of BSA for 1 hour at 37° C. The plate was then washed again twice with the adhesion buffer containing 1% of BSA. The nonadherent cells were eliminated by washing the wells three times with 200 μl of adhesion buffer plus 1% of BSA. Measurement of the phosphatase activity of the cells enabled quantification of the adherent cells. In brief, 100 μl of paranitrophenol phosphate (Sigma) at 3 mg/ml in the acetate buffer pH containing 0.1% of X100 Triton was added to the wells and incubated for 2 h at 37° C. The reaction was stopped by the addition of 1N NaOH. The release of paranitrophenol, which indicates the number of adherent cells, was measured after reading of the absorbance at 405 nm with an ELISA reader (Titertek Twinreader). […] The remainder of the protocol was identical to the that described above with the exception that no additional incubation of the cells with AMEP was performed.

[1] = cells incubated punctually for 30 minutes prior to adhesion test, 1.4-kDa peptide 1 μg/ml, AMEP 10 μg/ml (comparable molar concentration)
[2] = cells preincubated for 24 h, same molar concentration (AMEP 10 μg/ml, 1.4-kDa peptide 1 μg/ml)

AMEP: disintegrin domain of human metargidin (Met-420 to Glu-511, SEQ ID NO. 2), 91 amino acids, 9.7 kDa; recombinant or expressed in vivo by gene electrotransfer
inhibition of adhesion of endothelial cells on fibrinogen [1]: no significant effect | inhibition of adhesion of endothelial cells on vitronectin [1]: no significant effect | inhibition of adhesion of endothelial cells on fibrinogen [2]: 30% | inhibition of adhesion of endothelial cells on fibronectin [2]: 30% | inhibition of adhesion of endothelial cells on vitronectin [2]: 30%
